*1 amine or outer side, *2 acyl side, *3 side chain or, on linkers, in order; H or OH if unused. Where a SMILES comes first, the peptide text is derived from it. [ ]: non-standard residue; d: D form. The star is where a group is joined. NEtAsp = CCN([C@@H](CC(=O)[*:3])C(=O)[*:2])[*:1]; ACHC(1S,2S) = O=C([C@H]1CCCC[C@@H]1N[*:1])[*:2]; Oic = O=C(O)[C@@H]1C[C@@H]2CCCC[C@@H]2N1; X6 = O=C([C@@H]1CC(O)CN1[*:1])[*:2]; NMeCha = CN[C@@H](CC1CCCCC1)C(=O)O; NMeF = CN[C@@H](Cc1ccccc1)C(=O)O; tBuAla = CC(C)(C)C[C@H](N)C(=O)O; Cha = N[C@@H](CC1CCCCC1)C(=O)O; NMeD = CN[C@@H](CC(=O)O)C(=O)O; NMeL = CN[C@@H](CC(C)C)C(=O)O; Phe(ol) = N[C@H](CO)Cc1ccccc1; NHPhenethyl = c1ccc(CCN*)cc1; Pip = O=C(O)[C@@H]1CCCCN1; X4 = NC[C@H](Cc1ccccc1)N* Where only a bound is given, the exact number is not on record here.

As usually defined, the Kd is the constant that tells how readily two partners part at equilibrium.

Assay [1] concerns Escherichia coli. Briefly: Binding affinity to Escherichia coli sliding clamp assessed as association rate constant by ITC analysis.
For assay [2], the system named is Escherichia coli. The assay is described as follows: Binding affinity to Escherichia coli sliding clamp assessed as dissociation rate constant by ITC analysis. In general terms: Isothermal titration calorimetry measures the heat released or taken up as one component is titrated into another.
In assay [3] the test system is Escherichia coli. The assay is described as follows: Binding affinity to Escherichia coli sliding clamp assessed as gibbs free energy change by ITC analysis.
A short description of assay [4]: Binding affinity to Escherichia coli sliding clamp assessed as dissociation constant by ITC analysis.

`CC(=O)N[C@@H](CCC(N)=O)C(=O)N[C@@H](CC1CCCCC1)C(=O)N[C@@H](CC(=O)O)C(=O)N[C@@H](CC(C)C)C(=O)NCCc1ccccc1` (Ac-Q[Cha]DL-NHPhenethyl): the K in the assay with Escherichia coli [1] is 1.9 10^4/M/s; in the assay on Escherichia coli [2], 1.8 10^-2/s. In addition, in the assay on Escherichia coli [3], the deltaG is -8.2 kcal/mol. In addition, the equilibrium dissociation constant (Kd) in assay [4] came to 922 nM.

In the case of `CC(=O)N[C@@H](CCC(N)=O)C(=O)N[C@@H](CC1CCCCC1)C(=O)N[C@@H](CC(=O)O)C(=O)N[C@@H](CC(C)C)C(=O)N[C@H](CN)Cc1ccccc1` (Ac-Q[Cha]DL-X4), the K is 1.2 10^4/M/s with Escherichia coli [1] and 1.1 10^-2/s in the assay with Escherichia coli [2]. Moreover, in the assay with Escherichia coli [3], the deltaG is -8.27 kcal/mol. The dissociation constant Kd in assay [4] came to 877 nM.

For `CC(=O)N[C@@H](CCC(N)=O)C(=O)N[C@@H](CC1CCCCC1)C(=O)N[C@@H](CC(=O)O)C(=O)N[C@@H](CC(C)C)C(=O)N[C@@H](Cc1ccccc1)C(N)=O` (Ac-Q[Cha]DLF-NH2), the K with Escherichia coli [1] is 3.3 10^4/M/s; in the assay on Escherichia coli [2] it was 9.1 10^-3/s. Further, the deltaG in the assay with Escherichia coli [3] is -9 kcal/mol. In addition, in assay [4], the Kd stood at 268 nM.

For `CC(=O)N[C@@H](CCC(N)=O)C(=O)N[C@@H](CC1CCCCC1)C(=O)N[C@@H](CC(=O)O)C(=O)N[C@@H](CC(C)C)C(=O)NCC(=O)N[C@@H](Cc1ccccc1)C(=O)O` (Ac-Q[Cha]DLGF-OH), the results for the K in the assay with Escherichia coli [1] and in the assay on Escherichia coli [2] were 3.2 10^4/M/s and 1.1 10^-2/s, respectively. Further, the deltaG with Escherichia coli [3] is -8.9 kcal/mol. The dissociation constant Kd in assay [4] came to 313 nM.

As to `CC(=O)N[C@@H](CCC(N)=O)C(=O)N[C@@H](CC1CCCCC1)C(=O)N[C@@H](CC(=O)O)C(=O)N[C@@H](CC(C)C)C(=O)NCC(=O)N[C@@H](CC(C)C)C(=O)O` (Ac-Q[Cha]DLGL-OH), the K in the assay with Escherichia coli [1] was 2.6 10^4/M/s; with Escherichia coli [2] it was 1.7 10^-2/s. Also, the deltaG in the assay with Escherichia coli [3] is -8.4 kcal/mol. Also, the dissociation constant Kd in assay [4] came out at 682 nM.

For the compound `CC(=O)N[C@@H](CCC(N)=O)C(=O)N[C@@H](CC1CCCCC1)C(=O)N[C@@H](CC(=O)O)C(=O)N[C@@H](CC(C)C)C(=O)NCC(=O)N[C@@H](CC(C)(C)C)C(=O)O` (Ac-Q[Cha]DLG[tBuAla]-OH), the K in the assay on Escherichia coli [1] is 1.1 10^4/M/s; with Escherichia coli [2], 3 10^-2/s. Also, the deltaG with Escherichia coli [3] is -7.6 kcal/mol. In addition, in assay [4], the equilibrium dissociation constant (Kd) came to 2690 nM.

Turning to `CC(=O)N[C@@H](CCC(N)=O)C(=O)N[C@@H](CC1CCCCC1)C(=O)N[C@@H](CC(=O)O)C(=O)N[C@@H](CC(C)C)C(=O)N1CCC[C@H]1C(=O)N[C@@H](Cc1ccccc1)C(=O)O` (Ac-Q[Cha]DLPF-OH), the K with Escherichia coli [1] is 6 10^4/M/s; in the assay on Escherichia coli [2], 5 10^-3/s. In the assay with Escherichia coli [3], the deltaG was -9.7 kcal/mol. The equilibrium dissociation constant (Kd) in assay [4] is 81 nM.

For `CC(=O)N[C@@H](CCC(N)=O)C(=O)N[C@@H](CC1CCCCC1)C(=O)N[C@@H](CC(=O)O)C(=O)N[C@@H](CC(C)C)C(=O)N1CCC[C@H]1C(=O)N[C@@H](CC(C)C)C(=O)O` (Ac-Q[Cha]DLPL-OH), the results for the K in the assay on Escherichia coli [1] and with Escherichia coli [2] were 5.7 10^4/M/s and 1.1 10^-2/s, respectively. In addition, the deltaG with Escherichia coli [3] is -9.2 kcal/mol. Moreover, the Kd in assay [4] stood at 182 nM.

As for `CC(=O)N[C@@H](CCC(N)=O)C(=O)N[C@@H](CC1CCCCC1)C(=O)N[C@@H](CC(=O)O)C(=O)N[C@@H](CC(C)C)C(=O)N[C@H]1CCCC[C@@H]1C(=O)N[C@@H](CC(C)C)C(=O)O` (Ac-Q[Cha]DL[ACHC(1S,2S)]L-OH), the K is 7.4 10^4/M/s in the assay with Escherichia coli [1] and 2.9 10^-2/s in the assay with Escherichia coli [2]. For the same compound, the deltaG with Escherichia coli [3] was -7.4 kcal/mol. Also, in assay [4], the dissociation constant (Kd) is 4070 nM.

Turning to `CC(=O)N[C@@H](CCC(N)=O)C(=O)N[C@@H](CC1CCCCC1)C(=O)N[C@@H](CC(=O)O)C(=O)N[C@@H](CC(C)C)C(=O)N(C)[C@@H](Cc1ccccc1)C(=O)O` (Ac-Q[Cha]DL[NMeF]-OH), the K was 1 10^4/M/s in the assay with Escherichia coli [1] and 5.4 10^-2/s in the assay with Escherichia coli [2]. In addition, in the assay on Escherichia coli [3], the deltaG is -7.1 kcal/mol. Besides, the Kd in assay [4] is over 1000 nM.

As for `CC(=O)N[C@@H](CCC(N)=O)C(=O)N[C@@H](CC1CCCCC1)C(=O)N[C@@H](CC(=O)O)C(=O)N[C@@H](CC(C)C)C(=O)N1[C@H](C(=O)N[C@@H](Cc2ccccc2)C(=O)O)C[C@@H]2CCCC[C@@H]21` (Ac-Q[Cha]DL[Oic]F-OH), the K was 5.5 10^4/M/s in the assay on Escherichia coli [1] and 7.1 10^-3/s with Escherichia coli [2]. For the same compound, the deltaG with Escherichia coli [3] was -9.5 kcal/mol. Besides, in assay [4], the dissociation constant Kd was 120 nM.

For `CC(=O)N[C@@H](CCC(N)=O)C(=O)N[C@@H](CC1CCCCC1)C(=O)N[C@@H](CC(=O)O)C(=O)N[C@@H](CC(C)C)C(=O)N1[C@H](C(=O)N[C@@H](CC(C)C)C(=O)O)C[C@@H]2CCCC[C@@H]21` (Ac-Q[Cha]DL[Oic]L-OH), the K in the assay with Escherichia coli [1] was 7.1 10^4/M/s; in the assay on Escherichia coli [2], 3.9 10^-3/s. In the assay on Escherichia coli [3], the deltaG was -9.9 kcal/mol. In addition, in assay [4], the equilibrium dissociation constant (Kd) was 57 nM.

For the compound `CC(=O)N[C@@H](CCC(N)=O)C(=O)N[C@@H](CC1CCCCC1)C(=O)N[C@@H](CC(=O)O)C(=O)N[C@@H](CC(C)C)C(=O)N[C@H](CO)Cc1ccccc1` (Ac-Q[Cha]DL[Phe(ol)]), the K in the assay with Escherichia coli [1] is 2.6 10^4/M/s; in the assay on Escherichia coli [2], 1.9 10^-2/s. Besides, in the assay with Escherichia coli [3], the deltaG was -8.4 kcal/mol. For the same compound, the dissociation constant (Kd) in assay [4] stood at 751 nM.

Regarding `CC(=O)N[C@@H](CCC(N)=O)C(=O)N[C@@H](CC1CCCCC1)C(=O)N[C@@H](CC(=O)O)C(=O)N[C@@H](CC(C)C)C(=O)N1CCCC[C@H]1C(=O)N[C@@H](CC(C)C)C(=O)O` (Ac-Q[Cha]DL[Pip]L-OH), the K in the assay with Escherichia coli [1] was 4.3 10^4/M/s; with Escherichia coli [2], 1 10^-2/s. Moreover, the deltaG in the assay with Escherichia coli [3] was -9 kcal/mol. In assay [4], the dissociation constant (Kd) worked out at 243 nM.

As to `CC(=O)N[C@@H](CCC(N)=O)C(=O)N[C@@H](CC1CCCCC1)C(=O)N[C@@H](CC(=O)O)C(=O)N[C@@H](CC(C)C)C(=O)N1CC(O)C[C@H]1C(=O)N[C@@H](CC(C)C)C(=O)O` (stereo partly drawn) (Ac-Q[Cha]DL[X6]L-OH), the figures for the K in the assay with Escherichia coli [1] and in the assay on Escherichia coli [2] were 4.4 10^4/M/s and 1.7 10^-2/s, respectively. The deltaG in the assay with Escherichia coli [3] was -8.8 kcal/mol. The Kd in assay [4] turned out to be 369 nM.

`CC(=O)N[C@@H](CCC(N)=O)C(=O)N[C@@H](CC1CCCCC1)C(=O)N[C@@H](CC(=O)O)C(=O)N(C)[C@@H](CC(C)C)C(=O)N[C@@H](Cc1ccccc1)C(=O)O` (Ac-Q[Cha]D[NMeL]F-OH): the deltaG in the assay with Escherichia coli [3] is -5.2 kcal/mol. For the same compound, the dissociation constant Kd in assay [4] was over 1000 nM.

Regarding `CCN(C(=O)[C@H](CC1CCCCC1)NC(=O)[C@H](CCC(N)=O)NC(C)=O)[C@@H](CC(=O)O)C(=O)N[C@@H](CC(C)C)C(=O)N[C@@H](Cc1ccccc1)C(=O)O` (Ac-Q[Cha][NEtAsp]LF-OH), the K in the assay on Escherichia coli [1] is 2.9 10^4/M/s; in the assay on Escherichia coli [2], 1.3 10^-2/s. In addition, the deltaG in the assay with Escherichia coli [3] was -8.6 kcal/mol. For the same compound, in assay [4], the Kd is 523 nM.

Regarding `CC(=O)N[C@@H](CCC(N)=O)C(=O)N[C@@H](CC1CCCCC1)C(=O)N(C)[C@@H](CC(=O)O)C(=O)N[C@@H](CC(C)C)C(=O)N[C@@H](Cc1ccccc1)C(=O)O` (Ac-Q[Cha][NMeD]LF-OH), the K with Escherichia coli [1] was 2.1 10^4/M/s; in the assay with Escherichia coli [2], 1.9 10^-2/s. In addition, the deltaG in the assay on Escherichia coli [3] was -9.5 kcal/mol. For the same compound, in assay [4], the equilibrium dissociation constant (Kd) was determined as 114 nM.

As to `CC(=O)N[C@@H](CCC(N)=O)C(=O)N[C@@H](CC1CCCCC1)C(=O)N(C)[C@@H](CC(=O)O)C(=O)N[C@@H](CC(C)C)C(=O)N1CCC[C@H]1C(=O)N[C@@H](CC(C)C)C(=O)O` (Ac-Q[Cha][NMeD]LPL-OH), the K in the assay on Escherichia coli [1] is 1 10^5/M/s; in the assay with Escherichia coli [2], 2.3 10^-2/s. Moreover, the deltaG with Escherichia coli [3] was -9 kcal/mol. In assay [4], the Kd was found to be 263 nM.

For `CC(=O)N[C@@H](CCC(N)=O)C(=O)N(C)[C@@H](CC1CCCCC1)C(=O)N[C@@H](CC(=O)O)C(=O)N[C@@H](CC(C)C)C(=O)N[C@@H](Cc1ccccc1)C(=O)O` (Ac-Q[NMeCha]DLF-OH), the deltaG with Escherichia coli [3] was -6 kcal/mol. Further, the dissociation constant (Kd) in assay [4] was over 1000 nM.

Values taken from ChEMBL document CHEMBL5053545, “Iterative Structure-Based Optimization of Short Peptides Targeting the Bacterial Sliding Clamp” (J Med Chem, 2021).
